Test results: US7407775B2, “Method for identifying Listeria monocytogenes and culture medium” (Biomerieux S.A., priority 2000, dated 2008)

How the values were obtained:
Type in all cases: cell-based
Settings in all cases: 37° C., substrate 250 mg/l
Listeria welshimeri 078 = test: Experiment 1: esterase substrates, same chromogenic marker, fatty acids of different chain lengths; set-up: key: —: the symbol “-” corresponds to the absence of color or intensity; 0 corresponds to no activity; 0.1 corresponds to a trace of color; 0.5 corresponds to very pale coloration; 1 corresponds to clear but low-intensity coloration; 1.5 corresponds to a degree of coloration intermediate between scores 1 and 2; 2 corresponds to clear coloration of moderate intensity; 2.5 corresponds to a degree of coloration intermediate between scores 2 and 3; 3 corresponds to intense coloration; 3.5 corresponds to a degree of coloration intermediate between scores 3 and 4; 4 corresponds to very intense coloration
Protocol: (§1) A stock solution of each substrate at a concentration of 40 g/l was made up in a mixture of 40% Dimethylsulfoxide and 60% Polyoxyethylenesorbitan Monolaurate (Tween 20). An appropriate volume was added to three Columbia-type media while cooling to give a final substrate concentration of 250 mg/l. These dishes were divided into three areas and then each area was inoculated with a suspension (density=0.5 McFarland) of microorganisms taken from either the Applicant's own collection or the ATCC. The dishes were incubated for 48 hours at 37° C. The colonies which grew were examined by eye after 24 and 48 hours of incubation. Both the color and the intensity of the color of the colonies were recorded.
(§2) In Table 1 above, as in the following Tables, C represents the color of the colonies after incubation, I represents the intensity of the color, and the symbol “-” corresponds to the absence of color or intensity; finally, IT defines the incubation time. It should be noted that the intensity of the color is scored on an arbitrary scale but one which is consistent for all the biological specimens and media tested. This scale is valid for this experiment as well as all those that follow. It can be defined in the following way: • 0 corresponds to no activity, • 0.1 corresponds to a trace of color, • 0.5 corresponds to very pale coloration, • 1 corresponds to clear but low-intensity coloration, • 1.5 corresponds to a degree of coloration intermediate between scores 1 and 2, • 2 corresponds to clear coloration of moderate intensity, • 2.5 corresponds to a degree of coloration intermediate between scores 2 and 3, • 3 corresponds to intense coloration, • 3.5 corresponds to a degree of coloration intermediate between scores 3 and 4, • 4 corresponds to very intense coloration.

Listeria ivanovii 025 = test: as above; set-up: key: —: the symbol “-” corresponds to the absence of color or intensity; 0 corresponds to no activity; 0.1 corresponds to a trace of color; 0.5 corresponds to very pale coloration; 1 corresponds to clear but low-intensity coloration; 1.5 corresponds to a degree of coloration intermediate between scores 1 and 2; 2 corresponds to clear coloration of moderate intensity; 2.5 corresponds to a degree of coloration intermediate between scores 2 and 3; 3 corresponds to intense coloration; 3.5 corresponds to a degree of coloration intermediate between scores 3 and 4; 4 corresponds to very intense coloration
Protocol: as §1, §2

Listeria ivanovii 018 = test: as above; set-up: key: —: the symbol “-” corresponds to the absence of color or intensity; 0 corresponds to no activity; 0.1 corresponds to a trace of color; 0.5 corresponds to very pale coloration; 1 corresponds to clear but low-intensity coloration; 1.5 corresponds to a degree of coloration intermediate between scores 1 and 2; 2 corresponds to clear coloration of moderate intensity; 2.5 corresponds to a degree of coloration intermediate between scores 2 and 3; 3 corresponds to intense coloration; 3.5 corresponds to a degree of coloration intermediate between scores 3 and 4; 4 corresponds to very intense coloration
Protocol: as §1, §2

[1] = tested on: Listeria innocua ATCC 33090; test: as above; set-up: key: —: the symbol “-” corresponds to the absence of color or intensity; 0 corresponds to no activity; 0.1 corresponds to a trace of color; 0.5 corresponds to very pale coloration; 1 corresponds to clear but low-intensity coloration; 1.5 corresponds to a degree of coloration intermediate between scores 1 and 2; 2 corresponds to clear coloration of moderate intensity; 2.5 corresponds to a degree of coloration intermediate between scores 2 and 3; 3 corresponds to intense coloration; 3.5 corresponds to a degree of coloration intermediate between scores 3 and 4; 4 corresponds to very intense coloration
Protocol: as §1, §2

[2] = tested on: Listeria monocytogenes ATCC 19115; test: Experiment 2: octanoate esterase substrates with different Indoxyl-based chromogenic markers; set-up: key to I (intensity of the color): —: the symbol “-” corresponds to the absence of color or intensity; 0 corresponds to no activity; 0.1 corresponds to a trace of color; 0.5 corresponds to very pale coloration; 1 corresponds to clear but low-intensity coloration; 1.5 corresponds to a degree of coloration intermediate between scores 1 and 2; 2 corresponds to clear coloration of moderate intensity; 2.5 corresponds to a degree of coloration intermediate between scores 2 and 3; 3 corresponds to intense coloration; 3.5 corresponds to a degree of coloration intermediate between scores 3 and 4; 4 corresponds to very intense coloration
Protocol: as §2
as §1, with “and 60% Tween 20. An appropriate” for “and 60% Polyoxyethylenesorbitan Monolaurate (Tween 20). An appropriate”, “added to four Columbia-type media” for “added to three Columbia-type media”

[3] = tested on: Listeria monocytogenes ATCC 19117; test: as above; set-up: key to I (intensity of the color): —: the symbol “-” corresponds to the absence of color or intensity; 0 corresponds to no activity; 0.1 corresponds to a trace of color; 0.5 corresponds to very pale coloration; 1 corresponds to clear but low-intensity coloration; 1.5 corresponds to a degree of coloration intermediate between scores 1 and 2; 2 corresponds to clear coloration of moderate intensity; 2.5 corresponds to a degree of coloration intermediate between scores 2 and 3; 3 corresponds to intense coloration; 3.5 corresponds to a degree of coloration intermediate between scores 3 and 4; 4 corresponds to very intense coloration
Protocol: as §2
as §1, with “and 60% Tween 20. An appropriate” for “and 60% Polyoxyethylenesorbitan Monolaurate (Tween 20). An appropriate”, “added to four Columbia-type media” for “added to three Columbia-type media”

Structure (SMILES)	C (color of the colonies) (Listeria welshimeri 078; IT 24 h)	I (intensity of the color) (Listeria welshimeri 078; IT 24 h)	C (color of the colonies) (Listeria welshimeri 078; IT 48 h)	I (intensity of the color) (Listeria welshimeri 078; IT 48 h)	C (color of the colonies) (Listeria ivanovii 025; IT 24 h)	I (intensity of the color) (Listeria ivanovii 025; IT 24 h)	C (color of the colonies) (Listeria ivanovii 025; IT 48 h)	I (intensity of the color) (Listeria ivanovii 025; IT 48 h)	C (color of the colonies) (Listeria ivanovii 018; IT 24 h)	I (intensity of the color) (Listeria ivanovii 018; IT 24 h)	C (color of the colonies) (Listeria ivanovii 018; IT 48 h)	I (intensity of the color) (Listeria ivanovii 018; IT 48 h)	C (color of the colonies) ([2]; IT 24 h)	I (intensity of the color) ([2]; IT 24 h)	C (color of the colonies) ([2]; IT 48 h)	I (intensity of the color) ([2]; IT 48 h)	C (color of the colonies) ([3]; IT 24 h)	I (intensity of the color) ([3]; IT 24 h)	C (color of the colonies) ([3]; IT 48 h)	I (intensity of the color) ([3]; IT 48 h)	also measured
CCCCCCCC(=O)Oc1c[nH]c2ccc(Br)cc12 [Blue-C8, 5-Bromo-3-indolyl octanoate]	gray	0.5	gray	1	—	—	—	—	—	—	—	—	gray	1	gray	2	gray	1	gray	2	C (color of the colonies) ([1]; IT 24 h): gray; I (intensity of the color) ([1]; IT 24 h): 0.3; C (color of the colonies) ([1]; IT 48 h): gray; I (intensity of the color) ([1]; IT 48 h): 0.5
CCCCCCCCC(=O)Oc1c[nH]c2ccc(Br)cc12 [Blue-C9, 5-Bromo-3-indolyl nonanoate]	gray	0.5	gray	1	—	—	—	—	—	—	—	—									C (color of the colonies) ([1]; IT 24 h): —; I (intensity of the color) ([1]; IT 24 h): —; C (color of the colonies) ([1]; IT 48 h): gray; I (intensity of the color) ([1]; IT 48 h): 0.3
CCCCCCCCCC(=O)Oc1c[nH]c2ccc(Br)cc12 [Blue-C10, 5-Bromo-3-indolyl decanoate]	—	—	gray	0.5	—	—	—	—	—	—	—	—									C (color of the colonies) ([1]; IT 24 h): —; I (intensity of the color) ([1]; IT 24 h): —; C (color of the colonies) ([1]; IT 48 h): gray; I (intensity of the color) ([1]; IT 48 h): 0.3
CCCCCCCC(=O)Oc1c[nH]c2cc(Cl)c(Br)cc12 [Magenta-C8, 5-Bromo-6-chloro-3-indolyl octanoate]													purple	2	purple	3	purple	1.5	purple	3.5	
CCCCCCCC(=O)Oc1c[nH]c2cc(Cl)ccc12 [Pink-C8, 6-Chloro-3-indolyl octanoate]													pink	0.5	pink	1	pink	0.5	pink	1	
CCCCCCCC(=O)Oc1c[nH]c2ccc(Br)c(Cl)c12 [X-C8, 5-Bromo-4-chloro-3-indolyl octanoate]													turquoise	2.5	turquoise	3	turquoise	2	turquoise	3	
